Tests used:
Experiment in all cases: relative viability (nuclei count vs DMSO), 5 days (fraction); higher = more cells survive
[1] = compound: C1CSC2=C(C(=O)N1)SC3=C2C=C(C=C3)O [kb NB 142-70] + CC(C)C[C@H](NC(=O)[C@H](Cc1ccccc1)NC(=O)c1cnccn1)B(O)O [Bortezomib] (partner 0.002 µM)
Method in brief: (§1)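 Relative viability is defined as nuclei in treated wells over nuclei in vehicle wells. Duplicate plates were run and medians reported. Lung cancer cell lines in 1536-well plates were dosed by pin tool one day after seeding, with one drug or with a fixed anchor-drug dose plus five library-drug doses (not always all listed) in √10 steps, and nuclei were counted after 5 days.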

[2] = compound: NCC(=O)Nc1ccc(-n2nc(C(F)(F)F)cc2-c2ccc3c(ccc4ccccc43)c2)cc1 + Cc1nc(Nc2ncc(C(=O)Nc3c(C)cccc3Cl)s2)cc(N2CCN(CCO)CC2)n1 [Dasatinib] (partner 0.075 µM)
Method in brief: as §1

kb NB 142-70 + OSI-027 = compound: C1CSC2=C(C(=O)N1)SC3=C2C=C(C=C3)O [kb NB 142-70] + COc1cccc2cc(-c3nc([C@H]4CC[C@H](C(=O)O)CC4)n4ncnc(N)c34)[nH]c12 [OSI-027] (partner 0.5 µM)
Method in brief: as §1

[3] = compound: C1CSC2=C(C(=O)N1)SC3=C2C=C(C=C3)O [kb NB 142-70] + CS(=O)(=O)N1CCN(Cc2cc3nc(-c4cccc5[nH]ncc45)nc(N4CCOCC4)c3s2)CC1 [Pictilisib] (partner 1 µM)
Method in brief: as §1

kb NB 142-70 + Olaparib = compound: C1CSC2=C(C(=O)N1)SC3=C2C=C(C=C3)O [kb NB 142-70] + O=C(c1cc(Cc2n[nH]c(=O)c3ccccc23)ccc1F)N1CCN(C(=O)C2CC2)CC1 [Olaparib] (partner 8 µM)
Method in brief: as §1

Row | Cell Line | relative viability ([1]; first compound 0.1 µM) | relative viability ([1]; first compound 1 µM) | relative viability ([1]; first compound 3.162 µM) | relative viability ([2]; first compound 0.02 µM) | relative viability ([2]; first compound 0.2 µM) | relative viability ([2]; first compound 0.6325 µM) | relative viability ([2]; first compound 2 µM) | relative viability (kb NB 142-70 + OSI-027; first compound 0.1 µM) | relative viability (kb NB 142-70 + OSI-027; first compound 1 µM) | relative viability (kb NB 142-70 + OSI-027; first compound 3.162 µM) | relative viability ([3]; first compound 0.1 µM) | relative viability ([3]; first compound 1 µM) | relative viability ([3]; first compound 3.162 µM) | relative viability (kb NB 142-70 + Olaparib; first compound 0.1 µM) | relative viability (kb NB 142-70 + Olaparib; first compound 1 µM) | relative viability (kb NB 142-70 + Olaparib; first compound 3.162 µM) | relative viability ([2]; first compound 0.06325 µM)
1 | NCI-H1792 | 0.992 | 0.988 | 1.01 | 0.605 | 0.915 | 0.836 | 0.726 | 0.705 | 0.684 | 0.912 | 0.323 | 0.269 | 0.396 | 0.406 | 0.547 | 0.619 | 
2 | NCI-H1915 | 0.998 | 1 | 0.85 | 0.26 | 0.341 | 0.318 | 0.363 | 0.648 | 0.619 | 0.396 | 1.01 | 0.889 | 0.905 | 0.286 | 0.236 | 0.145 | 0.338
3 | NCI-H1975 | 0.33 | 0.283 | 0.153 | 0.318 | 0.443 | 0.38 | 0.387 | 0.808 | 0.741 | 0.597 | 0.263 | 0.264 | 0.178 | 0.81 | 0.883 | 0.35 | 0.387
4 | NCI-H1993 | 1.14 | 1.07 | 1.17 | 0.569 | 0.526 | 0.688 | 0.631 | 0.51 | 0.578 | 0.479 | 0.917 | 0.787 | 0.649 | 1.04 | 0.911 | 1.04 | 0.696
5 | NCI-H2009 | 1.09 | 1.05 | 0.638 | 0.314 | 0.327 | 0.279 | 0.305 | 0.678 | 0.68 | 0.395 | 0.857 | 0.814 | 0.564 | 0.721 | 0.724 | 0.611 | 0.332
6 | NCI-H2023 | 1.09 | 1.02 | 0.668 | 0.649 | 0.618 | 0.6 | 0.552 | 0.485 | 0.417 | 0.258 | 0.258 | 0.207 | 0.227 | 0.51 | 0.504 | 0.312 | 0.549
7 | NCI-H2085 | 1 | 1 | 0.709 | 0.291 | 0.292 | 0.263 | 0.341 | 0.878 | 0.876 | 0.388 | 0.486 | 0.53 | 0.398 | 0.742 | 0.727 | 0.487 | 0.282
8 | NCI-H2087 | 0.821 | 0.88 | 0.755 | 0.862 | 0.928 | 0.762 | 0.904 | 0.532 | 0.677 | 0.35 | 0.905 | 0.75 | 0.576 | 0.506 | 0.589 | 0.411 | 0.854
9 | NCI-H2126 | 1.11 | 1.14 | 1.12 | 0.573 | 0.667 | 0.702 | 0.602 | 0.791 | 0.629 | 0.674 | 0.519 | 0.479 | 0.515 | 0.928 | 0.899 | 0.816 | 0.664
10 | NCI-H2228 | 1.08 | 0.689 | 0.303 | 0.561 | 0.523 | 0.472 | 0.533 | 0.575 | 0.483 | 0.317 | 0.494 | 0.225 | 0.183 | 0.694 | 0.587 | 0.362 | 0.571
11 | NCI-H2347 | 1.03 | 0.808 | 1.07 | 0.36 | 0.301 | 0.326 | 0.298 | 0.461 | 0.416 | 0.384 | 0.874 | 0.659 | 0.324 | 0.634 | 0.632 | 0.568 | 0.365
12 | NCI-H2405 | 0.969 | 0.993 | 1.01 | 0.225 | 0.185 | 0.201 | 0.221 | 0.652 | 0.615 | 0.546 | 0.378 | 0.379 | 0.382 | 0.824 | 0.895 | 0.723 | 0.202
13 | NCI-H3122 | 1.09 | 1.06 | 1.03 | 0.862 | 0.824 | 0.912 | 0.799 | 0.922 | 0.919 | 0.726 | 0.578 | 0.649 | 0.551 | 0.648 | 0.714 | 0.793 | 0.837
14 | PC-3 [JPC-3] | 0.8 | 0.83 | 0.898 | 1.08 | 1.02 | 1.03 | 1.11 | 0.763 | 0.835 | 0.737 | 0.769 | 0.768 | 0.672 | 1.12 | 1.25 | 1.15 | 0.981
15 | PC-14 | 0.896 | 0.932 | 0.82 | 0.281 | 0.297 | 0.234 | 0.302 | 0.754 | 0.962 | 0.609 | 0.679 | 0.795 | 0.58 | 0.318 | 0.265 | 0.216 | 0.303
16 | RERF-LC-KJ | 1.18 | 1.29 | 0.946 | 0.809 | 0.835 | 0.878 | 0.76 | 0.566 | 0.643 | 0.593 | 0.504 | 0.519 | 0.374 | 1.03 | 1.01 | 0.675 | 0.985
17 | SK-LU-1 | 1.19 | 1.05 | 0.839 | 0.165 | 0.181 | 0.175 | 0.181 | 0.355 | 0.305 | 0.219 | 0.608 | 0.484 | 0.324 | 0.423 | 0.396 | 0.271 | 0.186
18 | SW 1573 | 1.18 | 0.967 | 0.322 | 0.471 | 0.586 | 0.471 | 0.424 | 0.618 | 0.47 | 0.266 | 0.49 | 0.337 | 0.26 | 0.421 | 0.305 | 0.177 | 0.383
